# In PubChem BioAssay (NCI):
#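 The compound was tested at five concentrations on cells cultured in 96-well plates, with a 48-hour exposure period. TGI is the concentration that stops growth completely.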
# Tests used:
# Experiment in all cases: growth of human tumour cells (NCI), 48 h
# NCI-H226 lung = tested on: NCI-H226 lung
# UO-31 renal = tested on: UO-31 renal
# SK-OV-3 ovarian = tested on: SK-OV-3 ovarian
# SN12C renal = tested on: SN12C renal
# HCC-2998 colon = tested on: HCC-2998 colon
# UACC-62 melanoma = tested on: UACC-62 melanoma
# T-47D breast = tested on: T-47D breast
# DU-145 prostate = tested on: DU-145 prostate
# IGROV1 ovarian = tested on: IGROV1 ovarian
# A549 NSCLC = tested on: A549 NSCLC
# 786-0 renal = tested on: 786-0 renal
# SF-268 CNS = tested on: SF-268 CNS
# UACC-257 melanoma = tested on: UACC-257 melanoma
# HCT-15 colon = tested on: HCT-15 colon
# RXF 393 renal = tested on: RXF 393 renal
# EKVX NSCLC = tested on: EKVX NSCLC
# SW-620 colon = tested on: SW-620 colon
# MOLT-4 leukemia = tested on: MOLT-4 leukemia
# NCI-H23 lung = tested on: NCI-H23 lung
# OVCAR-3 ovarian = tested on: OVCAR-3 ovarian
# K-562 leukemia = tested on: K-562 leukemia
# HOP-62 NSCLC = tested on: HOP-62 NSCLC
# OVCAR-8 ovarian = tested on: OVCAR-8 ovarian
# LOX IMVI melanoma = tested on: LOX IMVI melanoma
# HL-60(TB) leukemia = tested on: HL-60(TB) leukemia
# BT-549 breast = tested on: BT-549 breast
# HT29 colon = tested on: HT29 colon
# SK-MEL-28 melanoma = tested on: SK-MEL-28 melanoma
# A498 renal = tested on: A498 renal
# TK-10 renal = tested on: TK-10 renal
# COLO 205 colon = tested on: COLO 205 colon
# OVCAR-4 ovarian = tested on: OVCAR-4 ovarian
# NCI-H522 lung = tested on: NCI-H522 lung
# HOP-92 NSCLC = tested on: HOP-92 NSCLC
# SK-MEL-5 melanoma = tested on: SK-MEL-5 melanoma
# U251 CNS = tested on: U251 CNS
# HS 578T breast = tested on: HS 578T breast
# SNB-75 CNS = tested on: SNB-75 CNS
# RPMI-8226 leukemia = tested on: RPMI-8226 leukemia
# MDA-MB-231 breast = tested on: MDA-MB-231 breast
# MCF7 breast = tested on: MCF7 breast
# MALME-3M melanoma = tested on: MALME-3M melanoma
# CCRF-CEM leukemia = tested on: CCRF-CEM leukemia
# ACHN renal = tested on: ACHN renal
# SF-295 CNS = tested on: SF-295 CNS
# MDA-MB-435 = tested on: MDA-MB-435
# KM12 colon = tested on: KM12 colon
# CAKI-1 renal = tested on: CAKI-1 renal
# HCT-116 colon = tested on: HCT-116 colon
# NCI-H460 lung = tested on: NCI-H460 lung
# MDA-N = tested on: MDA-N
# PC-3 prostate = tested on: PC-3 prostate
# SF-539 CNS = tested on: SF-539 CNS
# NCI/ADR-RES ovarian = tested on: NCI/ADR-RES ovarian
# M14 melanoma = tested on: M14 melanoma
# OVCAR-5 ovarian = tested on: OVCAR-5 ovarian
# SK-MEL-2 melanoma = tested on: SK-MEL-2 melanoma
# SNB-19 CNS = tested on: SNB-19 CNS
# SR leukemia = tested on: SR leukemia
smiles,measurement,setting,value
COC(=O)C1(Cc2ccc3c(c2)CCC3)Cc2ccc3c(c2C1)CCC3 (stereo not drawn),TGI,NCI-H226 lung,66 µM
same,TGI,UO-31 renal,74 µM
same,TGI,SK-OV-3 ovarian,> 100 µM
same,TGI,SN12C renal,56.3 µM
same,TGI,HCC-2998 colon,> 100 µM
same,TGI,UACC-62 melanoma,> 100 µM
same,TGI,T-47D breast,27.1 µM
same,TGI,DU-145 prostate,> 100 µM
same,TGI,IGROV1 ovarian,74.6 µM
same,TGI,A549 NSCLC,> 100 µM
same,TGI,786-0 renal,97.6 µM
same,TGI,SF-268 CNS,> 100 µM
same,TGI,UACC-257 melanoma,30.3 µM
same,TGI,HCT-15 colon,> 100 µM
same,TGI,RXF 393 renal,83.3 µM
same,TGI,EKVX NSCLC,> 100 µM
same,TGI,SW-620 colon,69.7 µM
same,TGI,MOLT-4 leukemia,> 100 µM
same,TGI,NCI-H23 lung,4.63 µM
same,TGI,OVCAR-3 ovarian,60.1 µM
same,TGI,K-562 leukemia,> 100 µM
same,TGI,HOP-62 NSCLC,> 100 µM
same,TGI,OVCAR-8 ovarian,> 100 µM
same,TGI,LOX IMVI melanoma,32.9 µM
same,TGI,HL-60(TB) leukemia,> 100 µM
same,TGI,BT-549 breast,56.9 µM
same,TGI,HT29 colon,33.9 µM
same,TGI,SK-MEL-28 melanoma,> 100 µM
same,TGI,A498 renal,72.2 µM
same,TGI,TK-10 renal,> 100 µM
same,TGI,COLO 205 colon,39.2 µM
same,TGI,OVCAR-4 ovarian,99.1 µM
same,TGI,NCI-H522 lung,45.1 µM
same,TGI,HOP-92 NSCLC,98.1 µM
same,TGI,SK-MEL-5 melanoma,40.2 µM
same,TGI,U251 CNS,37.1 µM
same,TGI,HS 578T breast,45 µM
same,TGI,SNB-75 CNS,> 100 µM
same,TGI,RPMI-8226 leukemia,46.9 µM
same,TGI,MDA-MB-231 breast,45 µM
same,TGI,MCF7 breast,31.4 µM
same,TGI,MALME-3M melanoma,42 µM
same,TGI,CCRF-CEM leukemia,> 100 µM
same,TGI,ACHN renal,73.2 µM
same,TGI,SF-295 CNS,60.7 µM
same,TGI,MDA-MB-435,39 µM
same,TGI,KM12 colon,54 µM
same,TGI,CAKI-1 renal,79.2 µM
same,TGI,HCT-116 colon,54.8 µM
same,TGI,NCI-H460 lung,73.2 µM
same,TGI,MDA-N,41 µM
same,TGI,PC-3 prostate,55.9 µM
same,TGI,SF-539 CNS,> 100 µM
same,TGI,NCI/ADR-RES ovarian,72.8 µM
COC(=O)C1=C(CCCCO[Si](C)(C)C(C)(C)C)NC(=O)N2[C@@H](CCOCc3ccccc3)CC[C@H]12,TGI,UO-31 renal,56.2 µM
same,TGI,SK-OV-3 ovarian,> 100 µM
same,TGI,SN12C renal,32.7 µM
same,TGI,HCC-2998 colon,78.9 µM
same,TGI,UACC-62 melanoma,> 100 µM
same,TGI,T-47D breast,> 100 µM
same,TGI,DU-145 prostate,> 100 µM
same,TGI,A549 NSCLC,77.7 µM
same,TGI,786-0 renal,30.9 µM
same,TGI,SF-268 CNS,> 100 µM
same,TGI,UACC-257 melanoma,> 100 µM
same,TGI,HCT-15 colon,43.9 µM
same,TGI,EKVX NSCLC,> 100 µM
same,TGI,M14 melanoma,79.4 µM
same,TGI,MOLT-4 leukemia,> 100 µM
same,TGI,NCI-H23 lung,67.9 µM
same,TGI,OVCAR-3 ovarian,30.1 µM
same,TGI,K-562 leukemia,> 100 µM
same,TGI,HOP-62 NSCLC,65.2 µM
same,TGI,BT-549 breast,51 µM
same,TGI,HT29 colon,35.1 µM
same,TGI,SK-MEL-28 melanoma,> 100 µM
same,TGI,A498 renal,> 100 µM
same,TGI,TK-10 renal,> 100 µM
same,TGI,COLO 205 colon,32.4 µM
same,TGI,OVCAR-4 ovarian,> 100 µM
same,TGI,NCI-H522 lung,48.2 µM
same,TGI,HOP-92 NSCLC,34.4 µM
same,TGI,SK-MEL-5 melanoma,22.2 µM
same,TGI,U251 CNS,28.2 µM
same,TGI,SNB-75 CNS,> 100 µM
same,TGI,RPMI-8226 leukemia,> 100 µM
same,TGI,MDA-MB-231 breast,52.1 µM
same,TGI,MCF7 breast,> 100 µM
same,TGI,OVCAR-5 ovarian,> 100 µM
same,TGI,MALME-3M melanoma,47.3 µM
same,TGI,CCRF-CEM leukemia,51.9 µM
same,TGI,ACHN renal,> 100 µM
same,TGI,SF-295 CNS,> 100 µM
same,TGI,MDA-MB-435,> 100 µM
same,TGI,SK-MEL-2 melanoma,35.8 µM
same,TGI,SNB-19 CNS,> 100 µM
same,TGI,KM12 colon,44.2 µM
same,TGI,CAKI-1 renal,92.9 µM
same,TGI,HCT-116 colon,24.6 µM
same,TGI,NCI-H460 lung,> 100 µM
same,TGI,MDA-N,49.9 µM
same,TGI,PC-3 prostate,75.8 µM
same,TGI,NCI/ADR-RES ovarian,42.4 µM
CC(=O)N1N(c2ccc([N+](=O)[O-])cc2)C(=O)C1(C)C,TGI,NCI-H226 lung,37.6 µM
same,TGI,UO-31 renal,32.4 µM
same,TGI,SK-OV-3 ovarian,> 100 µM
same,TGI,SN12C renal,32.5 µM
same,TGI,HCC-2998 colon,29.7 µM
same,TGI,UACC-62 melanoma,42.3 µM
same,TGI,T-47D breast,> 100 µM
same,TGI,DU-145 prostate,> 100 µM
same,TGI,IGROV1 ovarian,44.8 µM
same,TGI,786-0 renal,36.6 µM
same,TGI,SF-268 CNS,87.1 µM
same,TGI,HCT-15 colon,34.5 µM
same,TGI,RXF 393 renal,32.3 µM
same,TGI,EKVX NSCLC,34.5 µM
same,TGI,SW-620 colon,29.2 µM
same,TGI,M14 melanoma,23.7 µM
same,TGI,MOLT-4 leukemia,43.4 µM
same,TGI,NCI-H23 lung,37.8 µM
same,TGI,OVCAR-3 ovarian,40.5 µM
same,TGI,K-562 leukemia,60.5 µM
same,TGI,HOP-62 NSCLC,40.4 µM
same,TGI,OVCAR-8 ovarian,59 µM
same,TGI,LOX IMVI melanoma,26.5 µM
same,TGI,BT-549 breast,24.2 µM
same,TGI,HT29 colon,44.8 µM
same,TGI,SK-MEL-28 melanoma,37.4 µM
same,TGI,A498 renal,> 100 µM
same,TGI,TK-10 renal,36.2 µM
same,TGI,COLO 205 colon,30.5 µM
same,TGI,OVCAR-4 ovarian,35 µM
same,TGI,NCI-H522 lung,27.2 µM
same,TGI,SK-MEL-5 melanoma,30.8 µM
same,TGI,U251 CNS,52.8 µM
same,TGI,HS 578T breast,> 100 µM
same,TGI,SNB-75 CNS,37.7 µM
same,TGI,MDA-MB-231 breast,45.7 µM
same,TGI,MCF7 breast,42.5 µM
same,TGI,OVCAR-5 ovarian,44.3 µM
same,TGI,MALME-3M melanoma,56 µM
same,TGI,CCRF-CEM leukemia,33.3 µM
same,TGI,ACHN renal,41.5 µM
same,TGI,SF-295 CNS,> 100 µM
same,TGI,MDA-MB-435,63.1 µM
same,TGI,SK-MEL-2 melanoma,37.4 µM
same,TGI,SNB-19 CNS,> 100 µM
same,TGI,KM12 colon,35.4 µM
same,TGI,NCI-H460 lung,> 100 µM
same,TGI,MDA-N,> 100 µM
same,TGI,PC-3 prostate,32 µM
same,TGI,SF-539 CNS,49.7 µM
same,TGI,NCI/ADR-RES ovarian,89.9 µM
CC(C)CC(NC(=O)C(CCI)Cc1ccccc1)C(=O)Nc1ccccc1 (stereo not drawn),TGI,NCI-H226 lung,> 100 µM
same,TGI,UO-31 renal,84.7 µM
same,TGI,SK-OV-3 ovarian,> 100 µM
same,TGI,SN12C renal,> 100 µM
same,TGI,HCC-2998 colon,> 100 µM
same,TGI,UACC-62 melanoma,> 100 µM
same,TGI,DU-145 prostate,> 100 µM
same,TGI,IGROV1 ovarian,> 100 µM
same,TGI,A549 NSCLC,> 100 µM
same,TGI,786-0 renal,> 100 µM
same,TGI,UACC-257 melanoma,> 100 µM
same,TGI,HCT-15 colon,> 100 µM
same,TGI,RXF 393 renal,> 100 µM
same,TGI,EKVX NSCLC,> 100 µM
same,TGI,SW-620 colon,> 100 µM
same,TGI,M14 melanoma,> 100 µM
same,TGI,MOLT-4 leukemia,83.6 µM
same,TGI,NCI-H23 lung,> 100 µM
same,TGI,OVCAR-3 ovarian,> 100 µM
same,TGI,K-562 leukemia,> 100 µM
same,TGI,OVCAR-8 ovarian,> 100 µM
same,TGI,LOX IMVI melanoma,> 100 µM
same,TGI,HL-60(TB) leukemia,64.6 µM
same,TGI,BT-549 breast,66.5 µM
same,TGI,SK-MEL-28 melanoma,> 100 µM
same,TGI,A498 renal,> 100 µM
same,TGI,TK-10 renal,> 100 µM
same,TGI,COLO 205 colon,> 100 µM
same,TGI,OVCAR-4 ovarian,> 100 µM
same,TGI,NCI-H522 lung,78.1 µM
same,TGI,HOP-92 NSCLC,> 100 µM
same,TGI,SK-MEL-5 melanoma,> 100 µM
same,TGI,U251 CNS,> 100 µM
same,TGI,SNB-75 CNS,> 100 µM
same,TGI,RPMI-8226 leukemia,> 100 µM
same,TGI,MDA-MB-231 breast,> 100 µM
same,TGI,MCF7 breast,> 100 µM
same,TGI,OVCAR-5 ovarian,> 100 µM
same,TGI,MALME-3M melanoma,> 100 µM
same,TGI,CCRF-CEM leukemia,> 100 µM
same,TGI,ACHN renal,> 100 µM
same,TGI,SF-295 CNS,> 100 µM
same,TGI,MDA-MB-435,> 100 µM
same,TGI,SK-MEL-2 melanoma,> 100 µM
same,TGI,SNB-19 CNS,> 100 µM
same,TGI,KM12 colon,> 100 µM
same,TGI,CAKI-1 renal,> 100 µM
same,TGI,HCT-116 colon,> 100 µM
same,TGI,NCI-H460 lung,> 100 µM
same,TGI,MDA-N,> 100 µM
same,TGI,SR leukemia,> 100 µM
same,TGI,PC-3 prostate,> 100 µM
same,TGI,SF-539 CNS,> 100 µM
same,TGI,NCI/ADR-RES ovarian,> 100 µM
